target: T1, chimeric human H3 receptor (Homo sapiens, UniProt Q9Y5N1); assay: Chimeric human H3 receptor screening GTP binding assay (inhibition of histamine-stimulated GTP-gamma35S binding, Example 8); assay type: biochemical; settings: 1 h; assay described in Example 8; symbol "!" in column headed Ki; read-out: Ki ("!": percent inhibition of agonist-induced GTP-gammaS binding to H3)
T1 construct: rat Galpha-i2 (Gnai2, rat); made in house; host or cells: Sf9 insect cells (baculovirus); P2 membranes
Summary of the method: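 Sf9 membranes co-expressing chimeric human H3 receptor and heterotrimeric G-protein (35 μg protein) incubated 60 min at room temperature with 4 μM compound, 1 μM histamine and 125 pM GTP-gamma35S in pH 7.4 buffer with 10 μM GDP. Filter-bound radioactivity, nonspecific (10 μM GTP-gammaS) subtracted, reported as % inhibition of histamine signal.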

T1 sequence (Q9Y5N1 with tags, fused parts or gaps): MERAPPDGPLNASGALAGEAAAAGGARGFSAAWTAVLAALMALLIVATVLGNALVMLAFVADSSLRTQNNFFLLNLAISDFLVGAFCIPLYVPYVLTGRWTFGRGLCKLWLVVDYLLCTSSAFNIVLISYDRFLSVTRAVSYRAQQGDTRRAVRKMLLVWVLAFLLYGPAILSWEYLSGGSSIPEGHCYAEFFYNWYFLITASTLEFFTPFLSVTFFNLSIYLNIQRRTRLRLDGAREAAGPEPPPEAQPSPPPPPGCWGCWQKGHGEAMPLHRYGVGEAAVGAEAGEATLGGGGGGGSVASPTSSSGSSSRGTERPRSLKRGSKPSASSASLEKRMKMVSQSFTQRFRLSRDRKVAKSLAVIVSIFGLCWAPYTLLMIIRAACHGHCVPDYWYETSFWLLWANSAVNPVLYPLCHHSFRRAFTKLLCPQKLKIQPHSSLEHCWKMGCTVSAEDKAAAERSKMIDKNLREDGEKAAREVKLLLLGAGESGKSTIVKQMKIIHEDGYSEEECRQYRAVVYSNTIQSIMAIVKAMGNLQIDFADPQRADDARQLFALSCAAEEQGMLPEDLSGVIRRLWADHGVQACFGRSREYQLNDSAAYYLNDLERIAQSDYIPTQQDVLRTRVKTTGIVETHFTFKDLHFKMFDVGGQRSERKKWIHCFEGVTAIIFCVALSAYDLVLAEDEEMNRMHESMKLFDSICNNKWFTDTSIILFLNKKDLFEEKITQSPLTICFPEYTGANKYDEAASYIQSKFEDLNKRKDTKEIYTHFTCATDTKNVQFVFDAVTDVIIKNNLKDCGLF

Compound | inhibition at 4 µM [%]
COc1cc(C(=O)N2CCc3cnc(N4CCN(C5CCC5)CC4)nc3CC2)cc(Cl)n1 [Compound 485, 7-(2-chloro-6-methoxyisonicotinoyl)-2-(4-cyclobutylpiperazin-1-yl)-6,7,8,9-tetrahydro-5H-pyrimido[4,5-d]azepine] | ≥ 90
Cc1cnc(C(=O)N2CCc3cnc(N4CCN(C5CCC5)CC4)nc3CC2)cn1 [Compound 486, 2-(4-cyclobutylpiperazin-1-yl)-7-[(5-methylpyrazin-2-yl)carbonyl]-6,7,8,9-tetrahydro-5H-pyrimido[4,5-d]azepine] | ≥ 90
O=C(c1ccncc1)N1CCc2cnc(N3CCN(C4CCC4)CC3)nc2CC1 [Compound 487, 2-(4-cyclobutylpiperazin-1-yl)-7-isonicotinoyl-6,7,8,9-tetrahydro-5H-pyrimido[4,5-d]azepine] | ≥ 90
O=C(c1cc(-c2ccccc2)nc2ccccc12)N1CCc2cnc(N3CCN(C4CCC4)CC3)nc2CC1 [Compound 488, 2-(4-cyclobutylpiperazin-1-yl)-7-[(2-phenylquinolin-4-yl)carbonyl]-6,7,8,9-tetrahydro-5H-pyrimido[4,5-d]azepine] | ≥ 90
CCCCc1ccc(C(=O)N2CCc3cnc(N4CCN(C5CCC5)CC4)nc3CC2)nc1 [Compound 489, 7-[(5-butylpyridin-2-yl)carbonyl]-2-(4-cyclobutylpiperazin-1-yl)-6,7,8,9-tetrahydro-5H-pyrimido[4,5-d]azepine] | ≥ 90
COc1cc(C(=O)N2CCc3cnc(N4CCN(C5CCC5)CC4)nc3CC2)nc2ccccc12 [Compound 490, 2-(4-cyclobutylpiperazin-1-yl)-7-[(4-methoxyquinolin-2-yl)carbonyl]-6,7,8,9-tetrahydro-5H-pyrimido[4,5-d]azepine] | ≥ 90
O=C(c1cc(Cl)nc(Cl)c1)N1CCc2cnc(N3CCN(C4CCC4)CC3)nc2CC1 [Compound 491, 2-(4-cyclobutylpiperazin-1-yl)-7-(2,6-dichloroisonicotinoyl)-6,7,8,9-tetrahydro-5H-pyrimido[4,5-d]azepine] | ≥ 90
O=C(c1ccnc2ccccc12)N1CCc2cnc(N3CCN(C4CCC4)CC3)nc2CC1 [Compound 492, 2-(4-cyclobutylpiperazin-1-yl)-7-(quinolin-4-ylcarbonyl)-6,7,8,9-tetrahydro-5H-pyrimido[4,5-d]azepine] | ≥ 90
O=C(c1cccnc1Sc1ccc(Cl)cc1)N1CCc2cnc(N3CCN(C4CCC4)CC3)nc2CC1 [Compound 493, 7-({2-[(4-chlorophenyl)thio]pyridin-3-yl}carbonyl)-2-(4-cyclobutylpiperazin-1-yl)-6,7,8,9-tetrahydro-5H-pyrimido[4,5-d]azepine] | ≥ 90
CC(C)(C)c1ccc(Oc2ncccc2C(=O)N2CCc3cnc(N4CCN(C5CCC5)CC4)nc3CC2)cc1 [Compound 494, 7-{[2-(4-tert-butylphenoxy)pyridin-3-yl]carbonyl}-2-(4-cyclobutylpiperazin-1-yl)-6,7,8,9-tetrahydro-5H-pyrimido[4,5-d]azepine] | ≥ 90
O=C(c1cccnc1Oc1ccccc1)N1CCc2cnc(N3CCN(C4CCC4)CC3)nc2CC1 [Compound 495, 2-(4-cyclobutylpiperazin-1-yl)-7-[(2-phenoxypyridin-3-yl)carbonyl]-6,7,8,9-tetrahydro-5H-pyrimido[4,5-d]azepine] | ≥ 90
O=C(c1cccnc1Sc1ccccc1)N1CCc2cnc(N3CCN(C4CCC4)CC3)nc2CC1 [Compound 496, 2-(4-cyclobutylpiperazin-1-yl)-7-{[2-(phenylthio)pyridin-3-yl]carbonyl}-6,7,8,9-tetrahydro-5H-pyrimido[4,5-d]azepine] | ≥ 90
O=C(c1cccnc1Oc1ccc(Cl)cc1)N1CCc2cnc(N3CCN(C4CCC4)CC3)nc2CC1 [Compound 497] | ≥ 90
COc1ncccc1C(=O)N1CCc2cnc(N3CCN(C4CCC4)CC3)nc2CC1 [Compound 498, 2-(4-cyclobutylpiperazin-1-yl)-7-[(2-methoxypyridin-3-yl)carbonyl]-6,7,8,9-tetrahydro-5H-pyrimido[4,5-d]azepine] | ≥ 90
C=CCSc1ncccc1C(=O)N1CCc2cnc(N3CCN(C4CCC4)CC3)nc2CC1 [Compound 499, 7-{[2-(allythio)pyridin-3-yl]carbonyl}-2-(4-cyclobutylpiperazin-1-yl)-6,7,8,9-tetrahydro-5H-pyrimido[4,5-d]azepine] | ≥ 90
COc1ccc(OC)c(Sc2ncccc2C(=O)N2CCc3cnc(N4CCN(C5CCC5)CC4)nc3CC2)c1 [Compound 500, 2-(4-cyclobutylpiperazin-1-yl)-7-({2-[(2,5-dimethoxyphenyl)thio]pyridin-3-yl}carbonyl)-6,7,8,9-tetrahydro-5H-pyrimido[4,5-d]azepine] | ≥ 90

Compound | inhibition at 4 µM [%]
CSc1ncccc1C(=O)N1CCc2cnc(N3CCN(C4CCC4)CC3)nc2CC1 [Compound 501, 2-(4-cyclobutylpiperazin-1-yl)-7-{[2-(methylthio)pyridin-3-yl]carbonyl}-6,7,8,9-tetrahydro-5H-pyrimido[4,5-d]azepine] | ≥ 90
CCSc1ncccc1C(=O)N1CCc2cnc(N3CCN(C4CCC4)CC3)nc2CC1 [Compound 502, 2-(4-cyclobutylpiperazin-1-yl)-7-{[2-(ethylthio)pyridin-3-yl]carbonyl}-6,7,8,9-tetrahydro-5H-pyrimido[4,5-d]azepine] | ≥ 90
Cc1ccc(Oc2ncccc2C(=O)N2CCc3cnc(N4CCN(C5CCC5)CC4)nc3CC2)c(C)c1 [Compound 503, 2-(4-cyclobutylpiperazin-1-yl)-7-{[2-(2,4-dimethylphenoxy)pyridin-3-yl]carbonyl}-6,7,8,9-tetrahydro-5H-pyrimido[4,5-d]azepine] | ≥ 90
Cc1c(C(=O)N2CCc3cnc(N4CCN(C5CCC5)CC4)nc3CC2)cnn1-c1ccccc1 [Compound 504, 2-(4-cyclobutylpiperazin-1-yl)-7-[(5-methyl-1-phenyl-1H-pyrazol-4-yl)carbonyl]-6,7,8,9-tetrahydro-5H-pyrimido[4,5-d]azepine] | ≥ 90
Cc1cc(C(=O)N2CCc3cnc(N4CCN(C5CCC5)CC4)nc3CC2)n(C(C)(C)C)n1 [Compound 505, 7-[(1-tert-butyl-3-methyl-1H-pyrazol-5-yl)carbonyl]-2-(4-cyclobutylpiperazin-1-yl)-6,7,8,9-tetrahydro-5H-pyrimido[4,5-d]azepine] | ≥ 90
Cn1nc(C(C)(C)C)cc1C(=O)N1CCc2cnc(N3CCN(C4CCC4)CC3)nc2CC1 [Compound 506, 7-[(3-tert-butyl-1-methyl-1H-pyrazol-5-yl)carbonyl]-2-(4-cyclobutylpiperazin-1-yl)-6,7,8,9-tetrahydro-5H-pyrimido[4,5-d]azepine] | ≥ 90
O=C(c1cnn(-c2ccc(Cl)cc2)c1C(F)(F)F)N1CCc2cnc(N3CCN(C4CCC4)CC3)nc2CC1 [Compound 507, 7-{[1-(4-chlorophenyl)-5-(trifluoromethyl)-1H-pyrazol-4-yl]carbonyl}-2-(4-cyclobutylpiperazin-1-yl)-6,7,8,9-tetrahydro-5H-pyrimido[4,5-d]azepine] | ≥ 90
CCCc1c(C(=O)N2CCc3cnc(N4CCN(C5CCC5)CC4)nc3CC2)cnn1-c1ccccc1 [Compound 508, 2-(4-cyclobutylpiperazin-1-yl)-7-[(1-phenyl-5-propyl-1H-pyrazol-4-yl)carbonyl]-6,7,8,9-tetrahydro-5H-pyrimido[4,5-d]azepine] | ≥ 90
CCn1nc(C)c(Br)c1C(=O)N1CCc2cnc(N3CCN(C4CCC4)CC3)nc2CC1 [Compound 509, 7-[(4-bromo-1-ethyl-3-methyl-1H-pyrazol-5-yl)carbonyl]-2-(4-cyclobutylpiperazin-1-yl)-6,7,8,9-tetrahydro-5H-pyrimido[4,5-d]azepine] | ≥ 90
O=C(c1c(-c2ccccc2)nnc2ccccc12)N1CCc2cnc(N3CCN(C4CCC4)CC3)nc2CC1 [Compound 510, 2-(4-cyclobutylpiperazin-1-yl)-7-[(3-phenylcinnolin-4-yl)carbonyl]-6,7,8,9-tetrahydro-5H-pyrimido[4,5-d]azepine] | ≥ 90
O=C(c1cnn(-c2ccccc2)c1C(F)(F)F)N1CCc2cnc(N3CCN(C4CCC4)CC3)nc2CC1 [Compound 511, 2-(4-cyclobutylpiperazin-1-yl)-7-{[1-phenyl-5-(trifluormethyl)-1H-pyrazol-4-yl]carbonyl}-6,7,8,9-tetrahydro-5H-pyrimido[4,5-d]azepine] | ≥ 90
CCCc1c(C(=O)N2CCc3cnc(N4CCN(C5CCC5)CC4)nc3CC2)cnn1-c1ccc(Cl)cc1 [Compound 512, 7-{[1-(4-chlorophenyl)-5-propyl-1H-pyrazol-4-yl]carbonyl}-2-(4-cyclobutylpiperazin-1-yl)-6,7,8,9-tetrahydro-5H-pyrimido[4,5-d]azepine] | ≥ 90
O=C(Cc1cccc(F)c1)N1CCc2cnc(N3CCN(C4CCC4)CC3)nc2CC1 [Compound 513, 2-(4-cyclobutylpiperazin-1-yl)-7-[(3-fluorophenyl)acetyl]-6,7,8,9-tetrahydro-5H-pyrimido[4,5-d]azepine] | ≥ 90
Cc1cccc(CC(=O)N2CCc3cnc(N4CCN(C5CCC5)CC4)nc3CC2)c1 [Compound 514, 2-(4-cyclobutylpiperazin-1-yl)-7-[(3-methylphenyl)acetyl]-6,7,8,9-tetrahydro-5H-pyrimido[4,5-d]azepine] | ≥ 90
Cc1ccc(CC(=O)N2CCc3cnc(N4CCN(C5CCC5)CC4)nc3CC2)cc1 [Compound 515, 2-(4-cyclobutylpiperazin-1-yl)-7-[(4-methylphenyl)acetyl]-6,7,8,9-tetrahydro-5H-pyrimido[4,5-d]azepine] | ≥ 90
O=C(Cc1ccc(F)cc1)N1CCc2cnc(N3CCN(C4CCC4)CC3)nc2CC1 [Compound 516, 2-(4-cyclobutylpiperazin-1-yl)-7-[(4-fluorophenyl)acetyl]-6,7,8,9-tetrahydro-5H-pyrimido[4,5-d]azepine] | ≥ 90

Reference: US20080051387A1, “TETRAHYDROPYRIDO[3,4-D]PYRIMIDINES AND RELATED ANALOGUES” (priority 2006, published 2008)
